Measured values: the supplement of paper PMC8612539
In brackets after ≈: the same amount, converted by molar mass.

Columns and labels:
Enterococcus spp. = assay: minimum inhibitory concentration (MIC)
Description: (§1)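 Broth microdilution MIC (Sensititre BOPO7F bovine plate, CLSI methods) of 19 antimicrobials against field isolates of P. multocida, M. haemolytica, H. somni (deep nasopharyngeal swabs) and E. coli, Enterococcus spp. (rectal swabs) from weaned dairy heifers. Incubation 16-24 h at 35 C. MIC is the lowest concentration preventing visible growth. Values with <= or > lie at the tested range limits. Trimethoprim-sulfamethoxazole is given as the trimethoprim component of a 1:19 mixture.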

Mannheimia haemolytica = assay: minimum inhibitory concentration (MIC)
Description: as §1

CO/N=C(\C(=O)N[C@@H]1C(=O)N2C(C(=O)O)=C(CSC(=O)c3ccco3)CS[C@H]12)c1csc(N)n1 [Ceftiofur]
minimum inhibitory concentration [µg/mL]
Settings	Enterococcus spp.	Mannheimia haemolytica
isolate (source animal id): 2	> 8	–
isolate (source animal id): 8	–	≤ 0.25
isolate (source animal id): 13	–	≤ 0.25
isolate (source animal id): 18	–	≤ 0.25
isolate (source animal id): 21	–	≤ 0.25
isolate (source animal id): 25	–	≤ 0.25
isolate (source animal id): 27	–	≤ 0.25
isolate (source animal id): 28	–	2 (≈ 3.82 µM)
isolate (source animal id): 30	–	≤ 0.25
isolate (source animal id): 31	–	≤ 0.25
isolate (source animal id): 32	–	≤ 0.25
isolate (source animal id): 34	–	≤ 0.25
isolate (source animal id): 35	> 8	–
isolate (source animal id): 36	–	≤ 0.25
isolate (source animal id): 37	–	≤ 0.25
isolate (source animal id): 40	–	≤ 0.25
isolate (source animal id): 41	–	≤ 0.25
isolate (source animal id): 42	8 (≈ 15.3 µM)	–
isolate (source animal id): 43	–	≤ 0.25
isolate (source animal id): 44	2 (≈ 3.82 µM)	–
isolate (source animal id): 46	–	≤ 0.25
isolate (source animal id): 49	–	≤ 0.25
isolate (source animal id): 50	–	≤ 0.25
isolate (source animal id): 51	–	≤ 0.25
isolate (source animal id): 52	–	≤ 0.25
isolate (source animal id): 53	–	≤ 0.25
isolate (source animal id): 55	–	≤ 0.25
isolate (source animal id): 56	–	≤ 0.25
isolate (source animal id): 57	–	≤ 0.25
isolate (source animal id): 79	4 (≈ 7.64 µM)	–
isolate (source animal id): 88	0.5 (≈ 0.955 µM)	–
isolate (source animal id): 91	0.5 (≈ 0.955 µM)	–
isolate (source animal id): 92	> 8	–
isolate (source animal id): 100	–	≤ 0.25
isolate (source animal id): 103	–	≤ 0.25
isolate (source animal id): 107	–	≤ 0.25
isolate (source animal id): 108	–	≤ 0.25
isolate (source animal id): 111	0.5 (≈ 0.955 µM)	–
isolate (source animal id): 112	–	≤ 0.25
isolate (source animal id): 113	–	≤ 0.25
isolate (source animal id): 121	–	≤ 0.25
isolate (source animal id): 122	> 8	≤ 0.25
isolate (source animal id): 123	> 8	≤ 0.25
isolate (source animal id): 126	–	≤ 0.25
isolate (source animal id): 133	> 8	≤ 0.25
isolate (source animal id): 135	–	≤ 0.25
isolate (source animal id): 138	–	≤ 0.25
isolate (source animal id): 141	–	≤ 0.25
isolate (source animal id): 142	–	≤ 0.25
isolate (source animal id): 145	–	≤ 0.25
isolate (source animal id): 149	–	≤ 0.25
isolate (source animal id): 151	–	≤ 0.25
isolate (source animal id): 152	–	≤ 0.25
isolate (source animal id): 154	–	≤ 0.25
isolate (source animal id): 158	> 8	–
isolate (source animal id): 159	–	≤ 0.25
isolate (source animal id): 162	–	≤ 0.25
isolate (source animal id): 168	> 8	–
isolate (source animal id): 169	> 8	–
isolate (source animal id): 170	–	≤ 0.25
isolate (source animal id): 171	> 8	≤ 0.25
isolate (source animal id): 172	–	≤ 0.25
isolate (source animal id): 173	–	≤ 0.25
isolate (source animal id): 175	> 8	–
isolate (source animal id): 177	> 8	–
isolate (source animal id): 179	–	≤ 0.25
isolate (source animal id): 180	–	≤ 0.25
isolate (source animal id): 181	> 8	–
isolate (source animal id): 182	> 8	–
isolate (source animal id): 183	4 (≈ 7.64 µM)	≤ 0.25
isolate (source animal id): 186	–	≤ 0.25
isolate (source animal id): 187	> 8	≤ 0.25
isolate (source animal id): 188	–	≤ 0.25
isolate (source animal id): 190	> 8	≤ 0.25
isolate (source animal id): 191	–	≤ 0.25
isolate (source animal id): 192	–	≤ 0.25
isolate (source animal id): 194	> 8	–
isolate (source animal id): 195	> 8	–
isolate (source animal id): 197	4 (≈ 7.64 µM)	–
isolate (source animal id): 201	–	≤ 0.25
isolate (source animal id): 202	–	≤ 0.25
isolate (source animal id): 209	–	≤ 0.25
isolate (source animal id): 211	> 8	≤ 0.25
isolate (source animal id): 214	8 (≈ 15.3 µM)	–
isolate (source animal id): 220	–	≤ 0.25
isolate (source animal id): 221	–	≤ 0.25
isolate (source animal id): 222	> 8	–
isolate (source animal id): 223	> 8	≤ 0.25
isolate (source animal id): 228	> 8	–
isolate (source animal id): 230	> 8	–
isolate (source animal id): 233	–	≤ 0.25
isolate (source animal id): 235	> 8	–
isolate (source animal id): 236	> 8	–
isolate (source animal id): 237	–	≤ 0.25
isolate (source animal id): 239	2 (≈ 3.82 µM)	–
isolate (source animal id): 241	> 8	≤ 0.25
isolate (source animal id): 244	> 8	–
isolate (source animal id): 246	> 8	–
isolate (source animal id): 247	> 8	–
isolate (source animal id): 250	> 8	–
isolate (source animal id): 252	> 8	≤ 0.25
isolate (source animal id): 253	–	≤ 0.25
isolate (source animal id): 259	–	≤ 0.25
isolate (source animal id): 260	–	≤ 0.25
isolate (source animal id): 262	–	≤ 0.25
isolate (source animal id): 268	0.5 (≈ 0.955 µM)	–
isolate (source animal id): 282	> 8	≤ 0.25
isolate (source animal id): 285	> 8	–
isolate (source animal id): 287	–	≤ 0.25
isolate (source animal id): 288	–	≤ 0.25
isolate (source animal id): 289	8 (≈ 15.3 µM)	–
isolate (source animal id): 290	8 (≈ 15.3 µM)	–
isolate (source animal id): 291	–	≤ 0.25
isolate (source animal id): 293	–	≤ 0.25
isolate (source animal id): 296	> 8	–
isolate (source animal id): 298	≤ 0.25	≤ 0.25
isolate (source animal id): 299	–	≤ 0.25
isolate (source animal id): 300	–	≤ 0.25
isolate (source animal id): 301	8 (≈ 15.3 µM)	–
isolate (source animal id): 302	–	≤ 0.25
isolate (source animal id): 304	–	≤ 0.25
isolate (source animal id): 306	–	≤ 0.25
isolate (source animal id): 308	–	≤ 0.25
isolate (source animal id): 309	–	≤ 0.25
isolate (source animal id): 310	> 8	–
isolate (source animal id): 313	–	≤ 0.25
isolate (source animal id): 318	–	≤ 0.25
isolate (source animal id): 320	8 (≈ 15.3 µM)	≤ 0.25
isolate (source animal id): 321	–	≤ 0.25
isolate (source animal id): 323	–	≤ 0.25
isolate (source animal id): 324	–	≤ 0.25
isolate (source animal id): 326	–	≤ 0.25
isolate (source animal id): 328	–	≤ 0.25
isolate (source animal id): 329	–	≤ 0.25
isolate (source animal id): 331	2 (≈ 3.82 µM)	–
isolate (source animal id): 333	2 (≈ 3.82 µM)	≤ 0.25
isolate (source animal id): 335	–	≤ 0.25
isolate (source animal id): 338	–	≤ 0.25
isolate (source animal id): 341	2 (≈ 3.82 µM)	–
